The values below come from ChEMBL document CHEMBL4270560, “Novel curcumin analogue hybrids: Synthesis and anticancer activity” (Eur J Med Chem, 2018).

One assay deals with MGC-803. In words: Antiproliferative activity against human MGC803 cells after 48 hrs by MTT assay. As to conditions: MGC-803, 48 h. It counts as functional, cell-based.
Assay [1] relates to SGC-7901. The experiment in a line: Antiproliferative activity against human SGC7901 cells after 48 hrs by MTT assay. As to conditions: SGC-7901, 48 h. The format is functional, cell-based. On the technique in general: Tetrazolium assays rely on reduction of a dye to a coloured formazan, in cell work by metabolically active cells.
The test system of a further assay is SMMC-7721. The experiment in a line: Antiproliferative activity against human SMMC7721 cells after 48 hrs by MTT assay. As to conditions: SMMC-7721, 48 h. The format is functional, cell-based.
The next assay concerns U-87 MG. The experiment in a line: Antiproliferative activity against human U87 cells after 48 hrs by MTT assay. It counts as functional, cell-based, U-87MG ATCC.
The test system of assay [2] is SGC-7901. In words: Induction of mitochondrial membrane depolarization in human SGC7901 cells assessed as cells with intact mitochondrial membrane potential after 48 hrs by JC-1 staining based flow cytometric analysis (reference value: 87.3%). The format is functional. On the technique in general: Flow cytometry measures light scatter and fluorescence of single cells or particles in a stream.

In assay [3] the test system is SGC-7901. The experiment in a line: Induction of mitochondrial membrane depolarization in human SGC7901 cells assessed as cells with mitochondrial membrane potential loss after 48 hrs by JC-1 staining based flow cytometric analysis (reference value: 9.29%). It counts as functional.

As usually defined, the IC50 is the concentration that inhibits the measured activity by half. The low end stands for greater potency, the high end for weaker potency. As for `COc1ccc(/C=C/C(=O)/C=C/c2ccc(Oc3cc(=O)oc4ccccc34)cc2)cc1OC`, the IC50 in the assay with MGC-803 and with SGC-7901 [1] was 49.4 µM throughout.
For the molecule `COc1cc(OC)c2c(=O)c(OCCCCOc3ccccc3/C=C/C(=O)/C=C/c3ccc(Cl)cc3)c(-c3cc(OC)c(OC)c(OC)c3)oc2c1`, the IC50 is 18.6 µM in the assay with MGC-803, 9.15 µM in the assay on SGC-7901 [1], 41.7 µM with SMMC-7721 and 21.1 µM with U-87 MG.
For `O=C(/C=C/c1ccc(Oc2cc(=O)oc3ccccc23)cc1)/C=C/c1ccccn1` the same measures were 19.4 µM, 25.2 µM, 35.4 µM and 50.8 µM.
For `COc1cc(OC)c2c(=O)c(OCCCCOc3ccc(/C=C/C(=O)/C=C/c4scnc4C)cc3)c(-c3cc(OC)c(OC)c(OC)c3)oc2c1` the same measures were 54.6 µM, 42 µM, 65 µM and 58.7 µM.
Turning to `COc1cccc2c1C(=O)c1c(O)c3c(c(O)c1C2=O)C[C@@](O)(C(=O)CO)C[C@@H]3O[C@H]1C[C@H](N)[C@H](O)[C@H](C)O1` [DOXORUBICIN], the IC50 is 0.4 µM in the assay with MGC-803, 0.87 µM in the assay with SGC-7901 [1], 0.73 µM in the assay on SMMC-7721 and 0.48 µM in the assay with U-87 MG.
For `COc1cc(OC)c2c(=O)c(OCCCCOc3ccc(/C=C/C(=O)/C=C/c4ccccn4)cc3)c(-c3cc(OC)c(OC)c(OC)c3)oc2c1` the same measures were 1.96 µM, 2.41 µM, 1.69 µM and 4.69 µM.
With `COc1cc(OC)c2c(=O)c(OCCCOc3ccc(/C=C/C(=O)/C=C/c4scnc4C)cc3)c(-c3cc(OC)c(OC)c(OC)c3)oc2c1`, the IC50 with MGC-803 came out at 31.7 µM; with SGC-7901 [1], 49.4 µM; in the assay on SMMC-7721, 34.3 µM; in the assay with U-87 MG, 40.4 µM.
On to `COc1cc(OC)c2c(=O)c(OCCCCOc3ccccc3/C=C/C(=O)/C=C/c3cccc([N+](=O)[O-])c3)c(-c3cc(OC)c(OC)c(OC)c3)oc2c1`, for which the IC50 with MGC-803 amounted to 5.06 µM; with SGC-7901 [1], 4.03 µM; in the assay with SMMC-7721, 7.31 µM; in the assay on U-87 MG, 10 µM.
On to `N#CC(C#N)=NNc1cccc(Cl)c1` [CARBONYL CYANIDE M-CHLOROPHENYLHYDRAZONE], for which the Activity in the assay with SGC-7901 [2] is on record as 27.7%; with SGC-7901 [3] it was 64.6%.
Turning to `COc1cc(OC)c2c(=O)c(OCCCOc3ccccc3/C=C/C(=O)/C=C/c3scnc3C)c(-c3cc(OC)c(OC)c(OC)c3)oc2c1`, the IC50 in the assay with MGC-803 was determined as 5.57 µM; in the assay with SGC-7901 [1] it was 4.78 µM; in the assay on SMMC-7721 it was 7.21 µM; in the assay with U-87 MG it was 9.63 µM.
As to `O=C(/C=C/c1ccc(Cl)cc1)/C=C/c1ccc(Oc2cc(=O)oc3ccccc23)cc1`, the IC50 worked out at 55.2 µM in the assay on MGC-803 and 48.3 µM in the assay with SGC-7901 [1].
On to `O=C(/C=C/c1ccc(Oc2cc(=O)oc3ccccc23)cc1)/C=C/c1cccnc1`, for which the IC50 in the assay with MGC-803 was 24.5 µM; in the assay on SGC-7901 [1] it was 17.4 µM; with SMMC-7721 it was 33.4 µM; with U-87 MG it was 37 µM.
On the same counts, the results for `COc1cc(OC)c2c(=O)c(OCCCCOc3ccccc3/C=C/C(=O)/C=C/c3cccs3)c(-c3cc(OC)c(OC)c(OC)c3)oc2c1` are 20.5 µM, 26.5 µM, 14.9 µM and 21.1 µM.
On the same counts, the results for `COc1cc(OC)c2c(=O)c(OCCCCOc3ccccc3/C=C/C(=O)/C=C/c3ccco3)c(-c3cc(OC)c(OC)c(OC)c3)oc2c1` are 7.9 µM, 8.98 µM, 8.48 µM and 10.7 µM.
On the same counts, the results for `COc1cc(OC)c2c(=O)c(OCCCOc3ccccc3/C=C/C(=O)/C=C/c3cccc([N+](=O)[O-])c3)c(-c3cc(OC)c(OC)c(OC)c3)oc2c1` are 5.73 µM, 5.4 µM, 9.2 µM and 7.92 µM.
